Laboratory results published in ChEMBL document CHEMBL3885861, “Open TG-GATES”.

Species on record: Rattus norvegicus
Assay: Open TG-GATES - Regimen: Daily Repeat
Format: toxicity, organism-based, Sprague-Dawley
Design: regimen Daily Repeat, gender Male, age 6 weeks
Details: in vivo, po, route gavage; for APTT / Bas / Eos / Fbg / Hb / Ht / Lym / MCH / MCHC / MCV / Mono / Neu / PT / Plat / RBC / Ret / WBC: tissue Blood; for KIDNEY_L / KIDNEY_R / KIDNEY_TOTAL: tissue Kidney; for LIVER: tissue Liver; for A/G / ALP / ALT / AST / BUN / CRE / Ca / Cl / DBIL / GLC / IP / K / LDH / Na / PL / RALB / TBIL / TC / TG / TP / gamma-GTP: tissue Plasma
[1] = 300 mg/kg, 72 h, dose level Middle, time 3 day
[2] = 300 mg/kg, […], dose level Middle, time 7 day
[3] = 300 mg/kg, […], dose level Middle, time 14 day
[4] = 300 mg/kg, […], dose level Middle, time 28 day
[5] = 1000 mg/kg, 72 h, dose level High, time 3 day
[6] = 1000 mg/kg, […], dose level High, time 7 day
[7] = 1000 mg/kg, […], dose level High, time 14 day
[8] = 1000 mg/kg, […], dose level High, time 28 day

CC(C)(S)[C@@H](N)C(=O)O [PENICILLAMINE]
TERMINAL_BW [1]: 235.2 g
APTT [1]: 17.2 s
Bas [1]: 0.4%
Eos [1]: 1%
Fbg [1]: 301.4 mg/dL
Hb [1]: 13.7 g/dL
Ht [1]: 42.2%
Lym [1]: 79.2%
MCH [1]: 20.9 pg
MCHC [1]: 32.6%
MCV [1]: 64.1 fL
Mono [1]: 3.2%
Neu [1]: 15.4%
PT [1]: 14.1 s
Plat [1]: 114.9 x10_4/uL
RBC [1]: 658.6 x10_4/ul
Ret [1]: 7.6%
WBC [1]: 91.9 x10_2/uL
KIDNEY_L [1]: 1 g
KIDNEY_R [1]: 1 g
KIDNEY_TOTAL [1]: 2 g
LIVER [1]: 11.1 g
A/G [1]: 0.9
ALP [1]: 1461.8 IU/L
ALT [1]: 40.4 IU/L
AST [1]: 66.2 IU/L
BUN [1]: 14.4 mg/dL
CRE [1]: 0.2 mg/dL
Ca [1]: 11 mg/dL
Cl [1]: 106.6 meq/L
DBIL [1]: 0.012 mg/dL
GLC [1]: 181.6 mg/dL
IP [1]: 7.2 mg/dL
K [1]: 4 meq/L
LDH [1]: 102 IU/L
Na [1]: 144.6 meq/L
PL [1]: 159.2 mg/dL
RALB [1]: 2.8 g/dL
TBIL [1]: 0.028 mg/dL
TC [1]: 81.2 mg/dL
TG [1]: 102.8 mg/dL
TP [1]: 5.8 g/dL
gamma-GTP [1]: 1 IU/L
TERMINAL_BW [2]: 273.3 g
TERMINAL_BW [3]: 321.5 g
TERMINAL_BW [4]: 390 g
APTT [2]: 16.6 s
Bas [2]: 0%
Eos [2]: 1.4%
Fbg [2]: 377.6 mg/dL
Hb [2]: 13.4 g/dL
Ht [2]: 40.7%
Lym [2]: 75.4%
MCH [2]: 20.6 pg
MCHC [2]: 33.1%
MCV [2]: 62.4 fL
Mono [2]: 3.6%
Neu [2]: 18.8%
PT [2]: 14 s
Plat [2]: 122.4 x10_4/uL
RBC [2]: 652.2 x10_4/ul
Ret [2]: 5.9%
WBC [2]: 96 x10_2/uL
APTT [3]: 23.3 s
Bas [3]: 0.2%
Eos [3]: 1%
Fbg [3]: 375.6 mg/dL
Hb [3]: 14.7 g/dL
Ht [3]: 43.5%
Lym [3]: 81.2%
MCH [3]: 20.2 pg
MCHC [3]: 33.8%
MCV [3]: 59.8 fL
Mono [3]: 2.2%
Neu [3]: 15.2%
PT [3]: 14.3 s
Plat [3]: 133 x10_4/uL
RBC [3]: 727 x10_4/ul
Ret [3]: 5.2%
WBC [3]: 103.7 x10_2/uL
APTT [4]: 17.4 s
Bas [4]: 0.4%
Eos [4]: 1.2%
Fbg [4]: 485.2 mg/dL
Hb [4]: 14.4 g/dL
Ht [4]: 42.7%
Lym [4]: 78%
MCH [4]: 18.7 pg
MCHC [4]: 33.8%
MCV [4]: 55.4 fL
Mono [4]: 2.6%
Neu [4]: 17.2%
PT [4]: 14.7 s
Plat [4]: 132.7 x10_4/uL
RBC [4]: 770 x10_4/ul
Ret [4]: 3.1%
WBC [4]: 131.5 x10_2/uL
KIDNEY_L [2]: 1.2 g
KIDNEY_R [2]: 1.1 g
KIDNEY_TOTAL [2]: 2.3 g
KIDNEY_L [3]: 1.2 g
KIDNEY_R [3]: 1.3 g
KIDNEY_TOTAL [3]: 2.5 g
KIDNEY_L [4]: 1.4 g
KIDNEY_R [4]: 1.4 g
KIDNEY_TOTAL [4]: 2.9 g
LIVER [2]: 12.2 g
LIVER [3]: 13.6 g
LIVER [4]: 15.6 g
A/G [2]: 0.9
ALP [2]: 1362.2 IU/L
ALT [2]: 38.6 IU/L
AST [2]: 61 IU/L
BUN [2]: 15.6 mg/dL
CRE [2]: 0.2 mg/dL
Ca [2]: 10.8 mg/dL
Cl [2]: 103.8 meq/L
DBIL [2]: 0.012 mg/dL
GLC [2]: 189.4 mg/dL
IP [2]: 7.2 mg/dL
K [2]: 4 meq/L
LDH [2]: 67.4 IU/L
Na [2]: 141.6 meq/L
PL [2]: 164.8 mg/dL
RALB [2]: 2.7 g/dL
TBIL [2]: 0.034 mg/dL
TC [2]: 85.4 mg/dL
TG [2]: 113.4 mg/dL
TP [2]: 5.7 g/dL
gamma-GTP [2]: 1 IU/L
A/G [3]: 0.9
ALP [3]: 1395 IU/L
ALT [3]: 41.8 IU/L
AST [3]: 64.2 IU/L
BUN [3]: 15.4 mg/dL
CRE [3]: 0.2 mg/dL
Ca [3]: 10.9 mg/dL
Cl [3]: 105 meq/L
DBIL [3]: 0.008 mg/dL
GLC [3]: 176.4 mg/dL
IP [3]: 7.2 mg/dL
K [3]: 3.9 meq/L
LDH [3]: 100.2 IU/L
Na [3]: 142.8 meq/L
PL [3]: 160.2 mg/dL
RALB [3]: 2.8 g/dL
TBIL [3]: 0.04 mg/dL
TC [3]: 80.4 mg/dL
TG [3]: 119.2 mg/dL
TP [3]: 6 g/dL
gamma-GTP [3]: 1 IU/L
A/G [4]: 0.9
ALP [4]: 911.4 IU/L
ALT [4]: 33.8 IU/L
AST [4]: 56.8 IU/L
BUN [4]: 14.8 mg/dL
CRE [4]: 0.2 mg/dL
Ca [4]: 10.8 mg/dL
Cl [4]: 105.6 meq/L
DBIL [4]: 0.008 mg/dL
GLC [4]: 186.8 mg/dL
IP [4]: 6.2 mg/dL
K [4]: 3.6 meq/L
LDH [4]: 60.6 IU/L
Na [4]: 144 meq/L
PL [4]: 147 mg/dL
RALB [4]: 2.8 g/dL
TBIL [4]: 0.072 mg/dL
TC [4]: 77 mg/dL
TG [4]: 87.8 mg/dL
TP [4]: 6.1 g/dL
gamma-GTP [4]: 1 IU/L
TERMINAL_BW [5]: 225.3 g
APTT [5]: 20.2 s
Bas [5]: 0%
Eos [5]: 1.2%
Fbg [5]: 286.4 mg/dL
Hb [5]: 13.2 g/dL
Ht [5]: 40.3%
Lym [5]: 78.6%
MCH [5]: 20.1 pg
MCHC [5]: 32.7%
MCV [5]: 61.6 fL
Mono [5]: 2.6%
Neu [5]: 16.8%
PT [5]: 14.4 s
Plat [5]: 121.8 x10_4/uL
RBC [5]: 657.4 x10_4/ul
Ret [5]: 6.2%
WBC [5]: 87.8 x10_2/uL
KIDNEY_L [5]: 1 g
KIDNEY_R [5]: 1 g
KIDNEY_TOTAL [5]: 2 g
LIVER [5]: 9.8 g
A/G [5]: 1
ALP [5]: 1073 IU/L
ALT [5]: 38 IU/L
AST [5]: 60.8 IU/L
BUN [5]: 13.2 mg/dL
CRE [5]: 0.2 mg/dL
Ca [5]: 10.7 mg/dL
Cl [5]: 105.8 meq/L
DBIL [5]: 0.012 mg/dL
GLC [5]: 166 mg/dL
IP [5]: 7.5 mg/dL
K [5]: 4.1 meq/L
LDH [5]: 94.2 IU/L
Na [5]: 144.2 meq/L
PL [5]: 143 mg/dL
RALB [5]: 2.8 g/dL
TBIL [5]: 0.038 mg/dL
TC [5]: 74.8 mg/dL
TG [5]: 50.4 mg/dL
TP [5]: 5.7 g/dL
gamma-GTP [5]: 0.8 IU/L
TERMINAL_BW [6]: 247.8 g
TERMINAL_BW [7]: 282 g
TERMINAL_BW [8]: 342.2 g
APTT [6]: 21.8 s
Bas [6]: 0%
Eos [6]: 1.4%
Fbg [6]: 452.4 mg/dL
Hb [6]: 13.2 g/dL
Ht [6]: 40.6%
Lym [6]: 79.2%
MCH [6]: 19.2 pg
MCHC [6]: 32.5%
MCV [6]: 59 fL
Mono [6]: 3%
Neu [6]: 15%
PT [6]: 14.6 s
Plat [6]: 131.3 x10_4/uL
RBC [6]: 687.8 x10_4/ul
Ret [6]: 4.6%
WBC [6]: 104.2 x10_2/uL
APTT [7]: 22.3 s
Bas [7]: 0%
Eos [7]: 1.2%
Fbg [7]: 520.8 mg/dL
Hb [7]: 13.1 g/dL
Ht [7]: 39.8%
Lym [7]: 82.6%
MCH [7]: 18.7 pg
MCHC [7]: 32.9%
MCV [7]: 56.8 fL
Mono [7]: 2.2%
Neu [7]: 13.2%
PT [7]: 15.3 s
Plat [7]: 164 x10_4/uL
RBC [7]: 701 x10_4/ul
Ret [7]: 4.9%
WBC [7]: 115.3 x10_2/uL
APTT [8]: 17.8 s
Bas [8]: 0.4%
Eos [8]: 1.8%
Fbg [8]: 646.8 mg/dL
Hb [8]: 12.1 g/dL
Ht [8]: 37.3%
Lym [8]: 71.2%
MCH [8]: 16.1 pg
MCHC [8]: 32.4%
MCV [8]: 49.8 fL
Mono [8]: 4.2%
Neu [8]: 21.6%
PT [8]: 15.7 s
Plat [8]: 156.3 x10_4/uL
RBC [8]: 749.2 x10_4/ul
Ret [8]: 5.6%
WBC [8]: 153.3 x10_2/uL
KIDNEY_L [6]: 1.1 g
KIDNEY_R [6]: 1.1 g
KIDNEY_TOTAL [6]: 2.1 g
KIDNEY_L [7]: 1.2 g
KIDNEY_R [7]: 1.2 g
KIDNEY_TOTAL [7]: 2.3 g
KIDNEY_L [8]: 1.4 g
KIDNEY_R [8]: 1.4 g
KIDNEY_TOTAL [8]: 2.8 g
LIVER [6]: 10.7 g
LIVER [7]: 11.8 g
LIVER [8]: 14.6 g
A/G [6]: 0.9
ALP [6]: 1010.8 IU/L
ALT [6]: 37 IU/L
AST [6]: 49.6 IU/L
BUN [6]: 15.2 mg/dL
CRE [6]: 0.2 mg/dL
Ca [6]: 10.8 mg/dL
Cl [6]: 104.4 meq/L
DBIL [6]: 0.016 mg/dL
GLC [6]: 169.2 mg/dL
IP [6]: 6.9 mg/dL
K [6]: 3.8 meq/L
LDH [6]: 72.4 IU/L
Na [6]: 142.4 meq/L
PL [6]: 156.4 mg/dL
RALB [6]: 2.8 g/dL
TBIL [6]: 0.066 mg/dL
TC [6]: 86.8 mg/dL
TG [6]: 59.2 mg/dL
TP [6]: 5.9 g/dL
gamma-GTP [6]: 1 IU/L
A/G [7]: 0.9
ALP [7]: 881.6 IU/L
ALT [7]: 37.2 IU/L
AST [7]: 52.4 IU/L
BUN [7]: 13 mg/dL
CRE [7]: 0.2 mg/dL
Ca [7]: 10.7 mg/dL
Cl [7]: 105.4 meq/L
DBIL [7]: 0.008 mg/dL
GLC [7]: 174.6 mg/dL
IP [7]: 6.7 mg/dL
K [7]: 3.8 meq/L
LDH [7]: 79.6 IU/L
Na [7]: 142.8 meq/L
PL [7]: 148.6 mg/dL
RALB [7]: 2.7 g/dL
TBIL [7]: 0.058 mg/dL
TC [7]: 81.6 mg/dL
TG [7]: 43.8 mg/dL
TP [7]: 5.8 g/dL
gamma-GTP [7]: 1 IU/L
A/G [8]: 0.8
ALP [8]: 458.6 IU/L
ALT [8]: 26.8 IU/L
AST [8]: 43.6 IU/L
BUN [8]: 14.2 mg/dL
CRE [8]: 0.2 mg/dL
Ca [8]: 10.5 mg/dL
Cl [8]: 105 meq/L
DBIL [8]: 0.02 mg/dL
GLC [8]: 162.4 mg/dL
IP [8]: 6.5 mg/dL
K [8]: 4 meq/L
LDH [8]: 70.4 IU/L
Na [8]: 144 meq/L
PL [8]: 137.6 mg/dL
RALB [8]: 2.7 g/dL
TBIL [8]: 0.1 mg/dL
TC [8]: 77.2 mg/dL
TG [8]: 45.4 mg/dL
TP [8]: 5.9 g/dL
gamma-GTP [8]: 1.6 IU/L
